Measured values: the SangsterLogP compilation

assay: method code SF-AS, from DOI: 10.1007/bf00500963, PMID: 600309

SMILES | logP
Clc1cccc(NC2=NCCN2)c1Cl | 2.01
Cc1cc(Br)cc(C)c1N=C1NCCN1 | 2.8
CCc1cccc(CC)c1N=C1NCCN1 | 2.6
Clc1cccc(Cl)c1N=C1NCCN1 | 1.59
O=[N+]([O-])c1cc(Cl)c(N=C2NCCN2)c(Cl)c1 | 2.1
Clc1ccc(Cl)c(N=C2NCCN2)c1 | 2.04
Cc1cc(Cl)c(NC2=NCCN2)c(Cl)c1 | 1.92
Cc1ccccc1N=C1NCCN1 | 1.28
Cc1cc(C)c(N=C2NCCN2)c(C)c1 | 2.32
Cc1cc(Cl)cc(C)c1N=C1NCCN1 | 2.5
Clc1cc(Br)cc(Cl)c1N=C1NCCN1 | 2.66
Brc1cc(Br)c(N=C2NCCN2)c(Br)c1 | 2.74
COc1cc(Cl)c(N=C2NCCN2)c(Cl)c1 | 1.6
Cc1cc(Cl)cc(Cl)c1N=C1NCCN1 | 2.38
Clc1cccc(Br)c1N=C1NCCN1 | 1.73
Clc1ccccc1N=C1NCCN1 | 1.36
Fc1cccc(Cl)c1N=C1NCCN1 | 1.45
Cc1cc(C)c(N=C2NCCN2)c(Cl)c1 | 2.1
Cc1ccc(N=C2NCCN2)c(C)c1 | 1.78
